Measured values as given in patent publication US11279714B2, “Anti-infective compounds” (priority 2014, dated 2022).
Converted amounts (≈) assume the structure as drawn.

Key:
[1] = test system: M. tuberculosis H37Rv expressing the green fluorescent protein (H37Rv-GFP); test: microbe, parasite or virus in culture; assay type: cell-based; conditions: for MIC50: Mycobacterium tuberculosis, H37RV, 120 h, read-out: QUM (MIC50)
[2] = test system: Raw 264.7 cells infected with H37Rv-GFP; test: microbe, parasite or virus in culture; assay type: cell-based, M. tuberculosis; conditions: for MIC50: Mycobacterium tuberculosis, H37RV, 120 h, read-out: QIM (MIC50)

COc1ccc(OCCNC(=O)c2cc3sc(N4CCOCC4)nc3s2)cc1 [Compound 82]
MIC50 [1]: > 20 µM
MIC50 [2]: 1 to 20 µM (≈ 0.42 to 8.39 µg/mL)
melting point: 172.1 °C

O=C(Nc1ccc(Oc2ccccc2)cc1)c1cc2nc(N3CCCCC3)sc2s1 [Compound 15]
MIC50 [1]: > 20 µM
MIC50 [2]: > 20 µM
melting point: 225.8 °C

Cc1nc2ccc(NC(=O)c3cc4sc(N5CCCCC5)nc4s3)cc2o1 [Compound 48]
MIC50 [1]: < 1 µM
MIC50 [2]: < 1 µM
melting point: 259.2 °C

CCc1ccc(NC(=O)c2cc3sc(N4CCCCC4)nc3s2)cc1 [Compound 38]
MIC50 [1]: 1 to 20 µM (≈ 0.372 to 7.43 µg/mL)
MIC50 [2]: < 1 µM
melting point: 198 °C

COc1ccc(NC(=O)c2ccc3nc(N4CCCCC4)sc3c2)cc1 [Compound 5]
MIC50 [1]: > 20 µM
MIC50 [2]: > 20 µM
melting point: 214 °C

O=C(Nc1cccc(Br)c1)c1cc2sc(N3CCOCC3)nc2s1 [Compound 118]
MIC50 [1]: > 20 µM
MIC50 [2]: < 1 µM
melting point: 199 °C

CCC1CN(c2nc3sc(C(=O)Nc4ccc5oc(C)nc5c4)cc3s2)CCO1 (stereo not drawn) [Compound 153]
MIC50 [1]: < 1 µM
MIC50 [2]: < 1 µM
melting point: 214 °C

O=C(Nc1ccc(-n2ccnc2)cc1)c1cc2sc(N3CCOCC3)nc2s1 [Compound 182]
MIC50 [1]: > 20 µM
MIC50 [2]: > 20 µM
melting point: 266 °C

Cc1nc2ccc(NC(=O)c3cc4sc(N5CCOCC5)nc4s3)cc2o1 [Compound 85]
MIC50 [1]: < 1 µM
MIC50 [2]: < 1 µM
melting point: 273.6 °C

O=C(Nc1ccc2ncoc2c1)c1cc2sc(N3CCOCC3)nc2s1 [Compound 101]
MIC50 [1]: 1 to 20 µM (≈ 0.386 to 7.73 µg/mL)
MIC50 [2]: < 1 µM
melting point: 281.8 °C

Cn1cnc2cc(NC(=O)c3cc4sc(N5CCOCC5)nc4s3)ccc21 [Compound 116]
MIC50 [1]: > 20 µM
MIC50 [2]: 1 to 20 µM (≈ 0.4 to 7.99 µg/mL)
melting point: 291 °C

CCc1cc2oc(C)nc2cc1NC(=O)c1cc2sc(N3CCOCC3)nc2s1 [Compound 150]
MIC50 [1]: > 20 µM
MIC50 [2]: > 20 µM
melting point: 244 °C

Cc1nc2cc(NC(=O)c3cc4sc(N5CCC(C(=O)NCc6ccccc6)CC5)nc4s3)ccc2o1 [Compound 186]
MIC50 [1]: > 20 µM
MIC50 [2]: < 1 µM
melting point: 264.9 °C

Cc1nc2cc(NC(=O)c3cc4sc(N5CCOC(C(=O)N(C)C)C5)nc4s3)ccc2o1 (stereo not drawn) [Compound 169]
MIC50 [1]: 1 to 20 µM (≈ 0.472 to 9.43 µg/mL)
MIC50 [2]: 1 to 20 µM (≈ 0.472 to 9.43 µg/mL)
melting point: 247.5 °C

Nc1ccc(OC(=O)c2cc3nc(N4CCCCC4)sc3s2)cc1 [Compound 9]
MIC50 [1]: > 20 µM
MIC50 [2]: > 20 µM
melting point: 153 °C

COc1ccc(CNc2nc3sc(C(=O)Nc4ccc(OC)cc4)cc3s2)cc1 [Compound 63]
MIC50 [1]: > 20 µM
MIC50 [2]: < 1 µM
melting point: 243 °C

O=C(Nc1ccc(-c2n[nH]cc2F)cc1)c1cc2sc(N3CCOCC3)nc2s1.O=C(O)C(F)(F)F [Compound 159]
MIC50 [1]: 1 to 20 µM
MIC50 [2]: < 1 µM
melting point: 287.2 °C

COc1cc(NC(=O)c2cc3sc(N4CCCCC4)nc3s2)cc(OC)c1 [Compound 37]
MIC50 [1]: > 20 µM
MIC50 [2]: > 20 µM
melting point: 148 °C

Cc1nc2cc(NC(=O)c3sc4nc(N5CCOCC5)sc4c3C)ccc2o1 [Compound 163]
MIC50 [1]: > 20 µM
MIC50 [2]: > 20 µM
melting point: 226 °C

Cc1nc2cc(NC(=O)c3cc4sc(N5CCC(C(=O)N(C)C)CC5)nc4s3)ccc2o1 [Compound 138]
MIC50 [1]: < 1 µM
MIC50 [2]: < 1 µM
melting point: 284.2 °C

O=C(Nc1ccc(F)c(F)c1)c1ccc2nc(N3CCCCC3)ccc2c1 [Compound 16]
MIC50 [1]: > 20 µM
MIC50 [2]: > 20 µM
melting point: 194 °C

Cc1nc2cc(CCNC(=O)c3cc4sc(N5CCOCC5)nc4s3)ccc2o1 [Compound 177]
MIC50 [1]: 1 to 20 µM (≈ 0.429 to 8.57 µg/mL)
MIC50 [2]: < 1 µM
melting point: 219.4 °C

CCC1COCCN1c1nc2sc(C(=O)Nc3ccc4oc(C)nc4c3)cc2s1 (stereo not drawn) [Compound 151]
MIC50 [1]: 1 to 20 µM (≈ 0.429 to 8.57 µg/mL)
MIC50 [2]: < 1 µM
melting point: 176 °C

Cc1nc2cc(Cl)c(NC(=O)c3cc4sc(N5CCOCC5)nc4s3)cc2o1 [Compound 147]
MIC50 [1]: > 20 µM
MIC50 [2]: > 20 µM
melting point: 275.3 °C

O=C(Nc1ccc(-c2cc[nH]n2)cc1)c1cc2sc(N3CCOCC3)nc2s1 [Compound 156]
MIC50 [1]: 1 to 20 µM (≈ 0.412 to 8.23 µg/mL)
MIC50 [2]: < 1 µM
melting point: 319 °C

COc1ccc(NC(=O)c2cc3sc(N4CCOCC4)nc3s2)cc1 [Compound 66]
MIC50 [1]: 1 to 20 µM (≈ 0.375 to 7.51 µg/mL)
MIC50 [2]: < 1 µM
melting point: 248.8 °C

O=C(Nc1ccc(F)cc1)c1cc2sc(N3CCC(CO)CC3)nc2s1 [Compound 142]
MIC50 [1]: < 1 µM
MIC50 [2]: < 1 µM
melting point: 246.3 °C

COC(=O)C1CCN(C(=O)c2cc3sc(N4CCCCC4)nc3s2)CC1 [Compound 56]
MIC50 [1]: 1 to 20 µM (≈ 0.394 to 7.87 µg/mL)
MIC50 [2]: 1 to 20 µM (≈ 0.394 to 7.87 µg/mL)
melting point: 136 °C

Cc1nn(C)cc1-c1ccc(NC(=O)c2cc3sc(N4CCOCC4)nc3s2)cc1 [Compound 167]
MIC50 [1]: 1 to 20 µM (≈ 0.44 to 8.79 µg/mL)
MIC50 [2]: < 1 µM
melting point: 245 °C

COc1ccc(NC(=O)c2cc3sc(NC4CCCCC4)nc3s2)cc1 [Compound 79]
MIC50 [1]: > 20 µM
MIC50 [2]: < 1 µM
melting point: 231 °C

Cc1nnc(-c2ccc(NC(=O)c3cc4sc(N5CCOCC5)nc4s3)cc2)o1 [Compound 103]
MIC50 [1]: < 1 µM
MIC50 [2]: < 1 µM
melting point: 319.1 °C

Cc1nc2ccc(NC(=O)c3cc4sc(N5CCOCC5)nc4s3)cc2o1.Cl [Compound 86]
QUM (MIC50, uM) [1]: +++ (+++ indicates <1 uM)
QIM (MIC50, uM) [2]: +++ (+++ indicates <1 uM)
melting point: 272.2 °C

Cc1nc2cc(NC(=O)c3cc4sc(N5CCOCC5C(=O)N(C)C)nc4s3)ccc2o1 (stereo not drawn) [Compound 175]
MIC50 [1]: > 20 µM
MIC50 [2]: > 20 µM
melting point: 288.6 °C

COc1ccc(NC(=O)c2ccc3sc(N4CCCCC4)nc3c2)cc1 [Compound 70]
MIC50 [1]: > 20 µM
MIC50 [2]: > 20 µM
melting point: 222 °C

Cc1nc2cc(NC(=O)N3CCc4sc(N5CCOCC5)cc4C3)ccc2o1 [Compound 191]
MIC50 [1]: > 20 µM
MIC50 [2]: > 20 µM
melting point: 171.7 °C

Cc1nc2cc(NC(=O)c3cc4sc(N5CCOC(c6ccccc6)C5)nc4s3)ccc2o1 (stereo not drawn) [Compound 174]
MIC50 [1]: 1 to 20 µM (≈ 0.477 to 9.53 µg/mL)
MIC50 [2]: < 1 µM
melting point: 223.5 °C

COc1ccc(NC(=O)c2cc3sc(N4CCCC4)nc3s2)cc1 [Compound 78]
MIC50 [1]: < 1 µM
MIC50 [2]: < 1 µM
melting point: 274.4 °C

CC(C)(C)OC(=O)n1ncc2cc(NC(=O)c3cc4sc(N5CCOCC5)nc4s3)ccc21 [Compound 88]
MIC50 [1]: > 20 µM
MIC50 [2]: > 20 µM
melting point: 331.7 °C

O=C(Nc1ccc(O)cc1)c1cc2nc(N3CCCCC3)sc2s1 [Compound 18]
MIC50 [1]: 1 to 20 µM (≈ 0.359 to 7.19 µg/mL)
MIC50 [2]: > 20 µM
melting point: 266 °C

O=C(Nc1ccc(OCc2ccccc2)cc1)c1cc2nc(N3CCCCC3)sc2s1 [Compound 11]
MIC50 [1]: > 20 µM
MIC50 [2]: > 20 µM
melting point: 223 °C

O=C(Nc1ccc(-c2ccn(C3CCCCO3)n2)cc1)c1cc2sc(N3CCOCC3)nc2s1 (stereo not drawn) [Compound 155]
MIC50 [1]: > 20 µM
MIC50 [2]: < 1 µM
melting point: 293 °C
